Columns and labels:
[1] = tested on: Hepatitis C virus; assay: Antiviral activity against Hepatitis C virus 1b con1 infected in human hepatoma cells assessed as decrease in replicon RNA level after 3 days by RT-PCR analysis; format: functional, organism-based, Hepacivirus hominis; conditions: Con1, 72 h
[2] = Cytotoxicity against human hepatoma cells after 3 days by MTS assay; format: cell-based
[3] = Cytotoxicity against human hepatoma cells assessed as decrease in GAPDH RNA level after 3 days by RT-PCR analysis; format: cell-based
[4] = AUC (0 to 6 hrs) in rat at 10 mg/kg, po; format: ADME, organism-based; design: time < 6 hr, dose 10 mg/kg, route oral; conditions: plasma
[5] = tested on: Liver; assay: Drug uptake in rat liver assessed per gram of tissue at 10 mg/kg, po measured at 6 hrs; format: ADME, organism-based; design: dose 10 mg/kg, route oral; conditions: in vivo

Row | Compound | EC50 [1] [nM] | CC50 at 72 h [2] [µM] | CC50 at 72 h [3] [µM] | AUC(0-t) at 6 h [4] [µM·h] | liver concentration [5] [ng/g]
1 | Nc1nc(Cl)c(-c2cc3ncccc3o2)c(N[C@@H]2C[C@H](CO)[C@@H](O)[C@H]2O)n1 | > 25000 | 21 | – | – | –
2 | Nc1nc(Cl)c(-c2cc3cnccc3o2)c(N[C@@H]2C[C@H](CO)[C@@H](O)[C@H]2O)n1 | 1700 | 25 | – | – | –
3 | Nc1nc(Cl)c(-c2cc3ccncc3o2)c(N[C@@H]2C[C@H](CO)[C@@H](O)[C@H]2O)n1 | 70 | 25 | 25 | – | –
4 | Nc1nc(Cl)c(-c2cc3cccnc3o2)c(N[C@@H]2C[C@H](CO)[C@@H](O)[C@H]2O)n1 | 400 | 19 | – | – | –
5 | Cc1cncc2oc(-c3c(Cl)nc(N)nc3N[C@@H]3C[C@H](CO)[C@@H](O)[C@H]3O)cc12 | 1400 | > 25 | 25 | – | –
6 | Cc1cc2cc(-c3c(Cl)nc(N)nc3N[C@@H]3C[C@H](CO)[C@@H](O)[C@H]3O)oc2cn1 | 30 | 25 | 9 | – | –
7 | CCc1cc2cc(-c3c(Cl)nc(N)nc3N[C@@H]3C[C@H](CO)[C@@H](O)[C@H]3O)oc2cn1 | 10 | 22 | 12 | – | –
8 | Cc1nccc2cc(-c3c(Cl)nc(N)nc3N[C@@H]3C[C@H](CO)[C@@H](O)[C@H]3O)oc12 | 120 | > 25 | > 25 | – | –
9 | CCc1nccc2cc(-c3c(Cl)nc(N)nc3N[C@@H]3C[C@H](CO)[C@@H](O)[C@H]3O)oc12 | 20 | 24 | 19 | – | –
10 | Cc1cc2cc(-c3c(Cl)nc(N)nc3N[C@@H]3C[C@H](CO)[C@@H](O)[C@H]3O)oc2c(C)n1.Cl | 10 | 22 | 15 | 0.01 | –
11 | CCc1cc2cc(-c3c(Cl)nc(N)nc3N[C@@H]3C[C@H](CO)[C@@H](O)[C@H]3O)oc2c(C)n1 | 10 | 16 | 13 | – | –
12 | CCc1nc(C)cc2cc(-c3c(Cl)nc(N)nc3N[C@@H]3C[C@H](CO)[C@@H](O)[C@H]3O)oc12 | 30 | 20 | 9 | – | –
13 | CCc1cc2cc(-c3c(Cl)nc(N)nc3N[C@@H]3C[C@H](CO)[C@@H](O)[C@H]3O)oc2c(CC)n1 | 20 | 16 | 25 | – | –
14 | COc1cc2cc(-c3c(Cl)nc(N)nc3N[C@@H]3C[C@H](CO)[C@@H](O)[C@H]3O)oc2c(C)n1 | 10 | 25 | – | – | –
15 | CCc1cc2cc(-c3c(C)nc(NC)nc3N[C@@H]3C[C@H](CO)[C@@H](O)[C@H]3O)oc2cn1 | 30 | > 25 | > 25 | – | –
16 | CCCCCNc1nc(C)c(-c2cc3cc(CC)ncc3o2)c(N[C@@H]2C[C@H](CO)[C@@H](O)[C@H]2O)n1 | 30 | 3 | 3 | – | –
17 | CCc1cc2cc(-c3c(C)nc(NCC(C)C)nc3N[C@@H]3C[C@H](CO)[C@@H](O)[C@H]3O)oc2cn1 | 80 | 12 | 7 | – | –
18 | CCc1cc2cc(-c3c(C)nc(NCC(C)(C)C)nc3N[C@@H]3C[C@H](CO)[C@@H](O)[C@H]3O)oc2cn1 | 30 | 11 | 10 | – | –
19 | CCOCCNc1nc(C)c(-c2cc3cc(CC)ncc3o2)c(N[C@@H]2C[C@H](CO)[C@@H](O)[C@H]2O)n1 | 4 | 16 | 4 | – | –
20 | CCc1cc2cc(-c3c(C)nc(NCC(F)(F)F)nc3N[C@@H]3C[C@H](CO)[C@@H](O)[C@H]3O)oc2cn1 | 20 | 15 | 13 | – | –
21 | CCc1cc2cc(-c3c(C)nc(NCCCC(F)(F)F)nc3N[C@@H]3C[C@H](CO)[C@@H](O)[C@H]3O)oc2cn1 | 20 | > 25 | 17 | – | –
22 | CCc1cc2cc(-c3c(C)nc(NCc4cc(OC)cc(OC)c4)nc3N[C@@H]3C[C@H](CO)[C@@H](O)[C@H]3O)oc2cn1 | 3 | 20 | > 25 | – | –
23 | CNc1nc(C)c(-c2cc3cc(OC)nc(C)c3o2)c(N[C@@H]2C[C@H](CO)[C@@H](O)[C@H]2O)n1 | 60 | 25 | > 25 | – | –
24 | COc1cc2cc(-c3c(C)nc(NCC(C)(C)C)nc3N[C@@H]3C[C@H](CO)[C@@H](O)[C@H]3O)oc2c(C)n1 | 40 | 21 | 17 | – | –

Row | Compound | EC50 [1] [nM] | CC50 at 72 h [2] [µM] | CC50 at 72 h [3] [µM] | AUC(0-t) at 6 h [4] [µM·h] | liver concentration [5] [ng/g]
25 | COc1cc(CNc2nc(C)c(-c3cc4cc(OC)nc(C)c4o3)c(N[C@@H]3C[C@H](CO)[C@@H](O)[C@H]3O)n2)cc(OC)c1 | 10 | 25 | > 25 | – | –
26 | CCOc1cc2cc(-c3c(C)nc(NC)nc3N[C@@H]3C[C@H](CO)[C@@H](O)[C@H]3O)oc2c(C)n1 | 50 | – | > 25 | – | –
27 | CCOc1cc2cc(-c3c(C)nc(NCC(C)(C)C)nc3N[C@@H]3C[C@H](CO)[C@@H](O)[C@H]3O)oc2c(C)n1 | 50 | 23 | 12 | – | –
28 | CCOc1cc2cc(-c3c(C)nc(Nc4ccccc4)nc3N[C@@H]3C[C@H](CO)[C@@H](O)[C@H]3O)oc2c(C)n1 | 150 | 18 | 24 | – | –
29 | CCOc1cc2cc(-c3c(C)nc(NCC4CC4)nc3N[C@@H]3C[C@H](CO)[C@@H](O)[C@H]3O)oc2c(C)n1 | 20 | 25 | 25 | – | –
30 | CCOc1cc2cc(-c3c(C)nc(NCCOC)nc3N[C@@H]3C[C@H](CO)[C@@H](O)[C@H]3O)oc2c(C)n1 | 9 | > 25 | > 25 | – | –
31 | CCOc1cc2cc(-c3c(C)nc(NCC(F)(F)F)nc3N[C@@H]3C[C@H](CO)[C@@H](O)[C@H]3O)oc2c(C)n1 | 20 | > 25 | > 25 | – | –
32 | CCOc1cc2cc(-c3c(C)nc(NCc4cc(OC)cc(OC)c4)nc3N[C@@H]3C[C@H](CO)[C@@H](O)[C@H]3O)oc2c(C)n1 | 2 | > 25 | > 25 | – | –
33 | COc1cc2cc(-c3c(C)nc(NCC(C)(C)C)nc3N[C@@H]3C[C@H](CO)[C@@H](O)[C@H]3O)oc2c(C)n1.Cl | – | – | – | 4.4 | 1180
34 | CCc1cc2cc(-c3c(Cl)nc(N)nc3N[C@@H]3C[C@H](CO)[C@@H](O)[C@H]3O)oc2cn1.Cl | – | – | – | 0.07 | –
35 | CCc1nccc2cc(-c3c(Cl)nc(N)nc3N[C@@H]3C[C@H](CO)[C@@H](O)[C@H]3O)oc12.Cl | – | – | – | 0.05 | –
36 | CCc1cc2cc(-c3c(Cl)nc(N)nc3N[C@@H]3C[C@H](CO)[C@@H](O)[C@H]3O)oc2c(C)n1.Cl | – | – | – | 0.01 | –
37 | CCc1cc2cc(-c3c(Cl)nc(N)nc3N[C@@H]3C[C@H](CO)[C@@H](O)[C@H]3O)oc2c(CC)n1.Cl | – | – | – | 0.17 | –
38 | COc1cc2cc(-c3c(Cl)nc(N)nc3N[C@@H]3C[C@H](CO)[C@@H](O)[C@H]3O)oc2c(C)n1.Cl | – | – | – | 0.1 | –
39 | CNc1nc(Cl)c(-c2cc3cc(OC)nc(C)c3o2)c(N[C@@H]2C[C@H](CO)[C@@H](O)[C@H]2O)n1.Cl | – | – | – | 6.5 | 274
40 | CCc1cc2cc(-c3c(C)nc(NC)nc3N[C@@H]3C[C@H](CO)[C@@H](O)[C@H]3O)oc2cn1.Cl | – | – | – | 0.9 | 936
41 | CCCCCNc1nc(C)c(-c2cc3cc(CC)ncc3o2)c(N[C@@H]2C[C@H](CO)[C@@H](O)[C@H]2O)n1.Cl | – | – | – | 0.48 | 31
42 | CCc1cc2cc(-c3c(C)nc(NCC(C)C)nc3N[C@@H]3C[C@H](CO)[C@@H](O)[C@H]3O)oc2cn1.Cl | – | – | – | 4.5 | 251
43 | CCc1cc2cc(-c3c(C)nc(NCC(C)(C)C)nc3N[C@@H]3C[C@H](CO)[C@@H](O)[C@H]3O)oc2cn1.Cl | – | – | – | 4 | 315
44 | CCOCCNc1nc(C)c(-c2cc3cc(CC)ncc3o2)c(N[C@@H]2C[C@H](CO)[C@@H](O)[C@H]2O)n1.Cl | – | – | – | 1.2 | 492
45 | CCc1cc2cc(-c3c(C)nc(NCCCC(F)(F)F)nc3N[C@@H]3C[C@H](CO)[C@@H](O)[C@H]3O)oc2cn1.Cl | – | – | – | 0.9 | 1000
46 | CCc1cc2cc(-c3c(C)nc(NCc4cc(OC)cc(OC)c4)nc3N[C@@H]3C[C@H](CO)[C@@H](O)[C@H]3O)oc2cn1.Cl | – | – | – | 0.1 | 20
47 | CNc1nc(C)c(-c2cc3cc(OC)nc(C)c3o2)c(N[C@@H]2C[C@H](CO)[C@@H](O)[C@H]2O)n1.Cl | – | – | – | 2.7 | 310

Source: ChEMBL document CHEMBL2057163, “Pyridofuran substituted pyrimidine derivatives as HCV replication (replicase) inhibitors” (Bioorg Med Chem Lett, 2012)
